Measurements from PMC4608580, “Synthesis and Evaluation of Biological Activity of Antimicrobial – Pro-Proliferative Peptide Conjugates” (PLoS ONE, 2015).
In brackets after ≈: the same amount, converted by molar mass. Residues, ends and D or L forms follow the SMILES beside them.

Experiments:
[1] = tested on: human primary dermal fibroblasts; experiment: Cell migration assay (in vitro scratch test); assay type: cell-based; conditions: 25 μg/mL, 24 h, serum-free DMEM, Mitomycin C 5 μg/mL, vs. control without peptide, three independent experiments
Method: Biopsies of healthy human skin were obtained aseptically from three donors (47–69 years old) undergoing circumcision after obtaining their written informed consent. All the procedures were approved by the Ethics Committee of Medical University of Gdansk (NKEBN/483/2011. Issued: 2011-12-19). The samples were washed several times with sterile PBS (Sigma-Aldrich, Germany) containing antibiotic (200 U/mL penicillin and 200 μg/mL streptomycin), after which, the subcutaneous tissue was cut off with a sharp blade. The resulting sheets were cut into small fragments, washed two times with sterile PBS and treated with 6 U/mL dispase II (BD, USA) overnight at 4°C to separate epidermis and dermis. The dermis was then digested with 1.0 mg/mL collagenase type I (from Clostridium histolyticum Sigma-Aldrich, Germany) for 2 hours at 37°C to isolate fibroblasts. Cells were used between the 2nd and 4th passage in all experiments.
Fibroblasts and keratinocytes were seeded (5x10^5 cells/well) in 6-well plates. When desired monolayer confluence was reached, cells were starved for 24 hours in serum-free DMEM. The monolayer was scratched then with 200μL-pipette tip. […] The wounded areas were then photographed by means of Zeiss Observer D1 microscope equipped with camera AxioCam and analyzed with AxioVision software (Carl Zeiss, Germany). Migration activity of the cells treated with the tested peptides were expressed as the percentage of the wounded area with respect to the control probe (cell cultures without any of the peptide), assumed as 100%.
An in vitro scratch test was performed to investigate the effect of the analyzed compounds on keratinocytes and fibroblasts migration. […]
Fig 2 Effect of the peptides on HaCaT keratinocytes and fibroblasts cell migration in the in vitro scratch test. […] Migration was analyzed after 24 hours by means of Zeiss Observer D1 microscope, wounding areas were analyzed with AxioVision software and expressed as the percentage of the wound width in comparison to the control sample (cells incubated in DMEM without FCS). […]

[2] = tested on: Escherichia coli (PCM 2057); assay type: cell-based; conditions: broth microdilution, Mueller-Hinton broth, approximately 10^5 CFU/mL, 37°C, 24 h, absorbance 590 nm, at least triplicate
Excerpt: (§1) Escherichia coli (PCM 2057), Staphylococcus aureus (PCM 2054), Staphylococcus epidermidis (PCM 2118), Pseudomonas aeruginosa (PCM 499) were obtained from Polish Collection of Microorganisms. Fungi strains Candida albicans (CCM 8186), Candida glabrata (CCM 8270), Candida parapsilosis (CCM 8260), Candida krusei (CCM 8271), Candida tropicalis (CCM 8264) were acquired from Czech Collection of Microorganisms.
(§2) Luria-Bertani broth (LB) and Sabouraud Dextrose broth (SB) (Biocorp, Poland) were used for cultivation of bacteria and fungi strains, respectively. Antimicrobial activity of peptides was analyzed through determination of MIC (minimal inhibitory concentration) parameter according to the standard microdilution technique performed on 96-well plates. Mueller-Hinton broth (MHB) was used as the working medium for all bacterial strains, while in case of fungi it was additionally supplemented with 2% glucose.
(§3) Briefly, inoculum was prepared from freshly grown cultures of microorganisms being at their exponential phase of growth. Each well of 96-well plates containing 100 μL of serially diluted peptides in PBS (phosphate buffer saline) at concentration ranging from 2 to 250 μg/mL were inoculated with 100 μL of approximately 10^5 CFU/mL of bacterial suspension or about 2.5 x 10^3 CFU/mL of fungi suspended in a double concentrated Mueller-Hinton broth (supplemented with 2% glucose for Candida spps.). Then plates were incubated overnight at 37°C and absorbance was read at 590 nm after 24 h. Cultures without peptide were treated as positive control, while uninoculated Mueller-Hinton broth was defined as negative control. All measurements were run at least in triplicate.
(§4) All peptides were screened against the wide range of microorganisms, including Gram-negative, Gram-positive bacteria and fungi from Candida species (Table 2). Broth microdilution method for MIC determination was used as a standard procedure. All assays were performed on liquid Mueller-Hinton broth, which was additionally supplemented with 2% glucose when fungicidal activity towards Candida spps. was analyzed.

[3] = tested on: Pseudomonas aeruginosa (PCM 499); assay type: cell-based; conditions: broth microdilution, Mueller-Hinton broth, approximately 10^5 CFU/mL, 37°C, 24 h, absorbance 590 nm, at least triplicate
Excerpt: as §1, §2, §3, §4

[4] = tested on: Candida krusei (CCM 8271); assay type: cell-based; conditions: broth microdilution, Mueller-Hinton broth + 2% glucose, about 2.5 x 10^3 CFU/mL, 37°C, 24 h, absorbance 590 nm, at least triplicate
Excerpt: as §1, §2, §3, §4

[5] = tested on: Candida parapsilosis (CCM 8260); assay type: cell-based; conditions: broth microdilution, Mueller-Hinton broth + 2% glucose, about 2.5 x 10^3 CFU/mL, 37°C, 24 h, absorbance 590 nm, at least triplicate
Excerpt: as §1, §2, §3, §4

[6] = tested on: Candida albicans (CCM 8186); assay type: cell-based; conditions: broth microdilution, Mueller-Hinton broth + 2% glucose, about 2.5 x 10^3 CFU/mL, 37°C, 24 h, absorbance 590 nm, peptide 2 to 250 μg/mL, at least triplicate
Excerpt: as §1, §2, §3, §4

[7] = tested on: Candida glabrata (CCM 8270); assay type: cell-based; conditions: broth microdilution, Mueller-Hinton broth + 2% glucose, about 2.5 x 10^3 CFU/mL, 37°C, 24 h, absorbance 590 nm, at least triplicate
Excerpt: as §1, §2, §3, §4

[8] = tested on: Candida tropicalis (CCM 8264); assay type: cell-based; conditions: broth microdilution, Mueller-Hinton broth + 2% glucose, about 2.5 x 10^3 CFU/mL, 37°C, 24 h, absorbance 590 nm, at least triplicate
Excerpt: as §1, §2, §3, §4

[9] = tested on: Staphylococcus aureus (PCM 2054); assay type: cell-based; conditions: broth microdilution, Mueller-Hinton broth, approximately 10^5 CFU/mL, 37°C, 24 h, absorbance 590 nm, at least triplicate
Excerpt: as §1, §2, §3, §4

[10] = tested on: Staphylococcus epidermidis (PCM 2118); assay type: cell-based; conditions: broth microdilution, Mueller-Hinton broth, approximately 10^5 CFU/mL, 37°C, 24 h, absorbance 590 nm, at least triplicate
Excerpt: as §1, §2, §3, §4

HaCaT keratinocytes = experiment: Cell migration assay (in vitro scratch test); assay type: cell-based, human; conditions: 25 μg/mL, 24 h; for Effect on keratinocyte migration (scratch test), in words: serum-free DMEM, Mitomycin C 5 μg/mL, vs. control without peptide, three independent experiments
Method: Fibroblasts and keratinocytes were seeded (5x10^5 cells/well) in 6-well plates. When desired monolayer confluence was reached, cells were starved for 24 hours in serum-free DMEM. The monolayer was scratched then with 200μL-pipette tip. The floating cells and cell debris were removed by double washing in PBS, further replaced with a fresh serum-free medium. Wounded monolayers were incubated for the next 24 h in the presence of tested peptides used at concentration of 25 μg/mL and 5 μg/mL of Mitomycin C (Sigma Aldrich) to prevent proliferation. At the end of the experiment medium was removed and the cells were fixed with 3.7% PFA for 5 min, stained for the next 30 min with 0.05% crystal violet solution, washed several times with distilled water and the plates were left inverted for a couple of minutes to drain. The wounded areas were then photographed by means of Zeiss Observer D1 microscope equipped with camera AxioCam and analyzed with AxioVision software (Carl Zeiss, Germany). Migration activity of the cells treated with the tested peptides were expressed as the percentage of the wounded area with respect to the control probe (cell cultures without any of the peptide), assumed as 100%.
An in vitro scratch test was performed to investigate the effect of the analyzed compounds on keratinocytes and fibroblasts migration. Evaluation was based on the efficiency of the invasion of the monolayer cells to the prewounded area within 24 h after stimulation with the appropriate compound added at concetration of 25μg/mL.
Fig 2 Effect of the peptides on HaCaT keratinocytes and fibroblasts cell migration in the in vitro scratch test. HaCaT cells and fibroblasts were grown in 6-well plates until the 100% confluence was reached, then cells were starved for the next 12 hours in DMEM without 10% FCS and scratched once vertically with a 200μL pipette tip. After being washed two times with sterile PBS, a fresh portion of DMEM medium was added and cells were treated with the tested peptides applied at their optimal doses (25 μg/mL). Migration was analyzed after 24 hours by means of Zeiss Observer D1 microscope, wounding areas were analyzed with AxioVision software and expressed as the percentage of the wound width in comparison to the control sample (cells incubated in DMEM without FCS). Control+ FCS corresponds to the sample with cells incubated in the medium containing 10% FCS and was treated as the additional positive control. Data represent the mean ± SD of three independent experiments. *P < 0.05, **P < 0.01, ***P < 0.001 vs. control.

[11] = Circular dichroism, alpha-helical content; assay type: physicochemical; conditions: CD, mean residue ellipticity at 222 nm (Eq 1), peptide 0.4 mg/ml in 30 mM SDS, room temperature
Method: Circullar dichroism spectra of analyzed compounds were recorded on a Jasco J-815 spectropolarimeter using a quartz cell of 1 mm path length between 195–260 nm at room temperature. Peptides at concentration of 0.4 mg/ml were dissolved in water or 30 mM SDS solution. SDS micelle system was used as the simplified model of negatively charged lipid membrane. On the basis of the obtained results the alpha-helical content was determined from the mean residue ellipticities at 222 nm according to Eq 1: %Helix=([θ]obs/([θ]helixx(1−2.57/l))x100, (1) where [θ] obs is the experimentally observed mean-residue ellipticity at 222 nm, [θ]helix is the theoretical ellipticity of peptide of infinite length with a 100% helix population, taken as -39 500 deg·cm^2/dmol, and l is the number of peptide bonds.
Circular dichroism method was applied to obtain a basic information about the secondary structure of the synthesized compounds (with the exception of CAR, CAR3, DAL, CTEN2) in two chemical environments, water and 30 mM SDS. As expected, all the tested compounds in water adopted a random-coil structure, while in the presence of 30 mM SDS most of them formed α-helices with characteristic negative minima around 208 and 220 nm. […] The examples of CD spectra for selected peptides could be seen in supporting information (Figure A in S1 File). On the basis of the experimentally obtained values of the mean residue ellipticities of peptides at 222 nm their alpha-helical content was calculated according to the Eq 1 (Table 1).

B. cereus = assay type: cell-based; conditions: broth microdilution, Mueller-Hinton broth, approximately 10^5 CFU/mL, 37°C, 24 h, absorbance 590 nm, at least triplicate
Method: as §2, §3, §4

B. subtilis = assay type: cell-based; conditions: broth microdilution, Mueller-Hinton broth, approximately 10^5 CFU/mL, 37°C, 24 h, absorbance 590 nm, at least triplicate
Method: as §2, §3, §4

[12] = tested on: immortalized human HaCaT keratinocytes; experiment: Cell proliferation assay (MTT); assay type: cell-based; conditions: 72 h, serum-free DMEM, whole range 1–50 μg/mL, vs. control without peptide, triplicate
Method: In our study two kind of cells were used: immortalized human HaCaT keratinocytes (DKFZ Heidelberg, Germany) and primary dermal fibroblasts obtained from 3 healthy donors. Both types of the used cell lines were grown in Dulbecco's modified Eagle's medium (DMEM) (Sigma–Aldrich, Germany), that contained […] of glucose, […] of L-glutamine, sodium pyruvate and sodium bicarbonate. Additionally, medium was supplemented with 10% of FCS (fetal calf serum, Sigma-Aldrich, Germany), 100 U/mL of penicillin and 100 μg/mL streptomycin (Sigma-Aldrich, Germany). The cells were grown in culture dishes (BD, USA) under standard conditions in a humidified atmosphere with 5% CO2 at 37°C and medium was changed every 2 days.
The fibroblasts and keratinocytes were seeded at density of 4500 and 6000 cells per well, respectively, into 96-well plates suspended in a medium supplemented with 10% of FCS. After 24 h the media were exchanged with serum- and antibiotic- free DMEM and tested peptides dissolved in PBS were added yielding final concentration ranging from 1 to 50 μg/mL. Cells were incubated for the next 24 hours, when the medium was exchanged again and fresh portion of peptides (used at the same concentrations as previously) was added. Incubation was continued for the next 48 hours (the overall time of cell exposition to peptide was 72 h). At the end of the experiment cells were treated with 20 μL of MTT (5 mg/mL in PBS). After 3 h at 37°C under 5% CO2 medium was discarded and replaced by 6mM HCl in isopropanol. After 15 min when the purple crystals of formazan were fully solubilized, absorbance was read at 570 nm with a plate reader. The optical density reflects the level of cell viability as MTT is converted in purple formazan product only in the presence of viable mitochondria of the living cells.
Fig 1 Pro-proliferative activity of the tested peptides towards human keratinocytes (A) and fibroblasts (B). Cells were incubated for 72 hours in serum-free DMEM medium in the presence of peptides applied at concentrations of 1,10, 25 and 50 μg/mL, respectively. The data represents results of MTT assay expressed as the percentage of the cell viability in comparison to their control sample (cells incubated in serum-free DMEM without tested peptides), additional positive control corresponds to the cells incubated in the presence of 10% FCS. All experiments were performed independently in triplicate. *P < 0.05, **P < 0.01, ***P < 0.001 vs. control.
In order to evaluate a long-term effect of peptides, experiments were carried out for 72 hours. Before addition of the tested compounds, the cell medium was exchanged for the fresh one not containing any serum or antibiotic.

Compound	Effect on fibroblast migration (scratch test), in words [1]	MIC E.coli [2] [µg/mL]	MIC P. aeruginosa [3] [µg/mL]	MIC C.krusei [4] [µg/mL]	MIC C. parapsilosis [5] [µg/mL]	MIC C. albicans [6] [µg/mL]	MIC C.glabrata [7] [µg/mL]	MIC C.tropicalis [8] [µg/mL]	MIC S.aureus [9] [µg/mL]	MIC S. epidermidis [10] [µg/mL]	Effect on keratinocyte migration (scratch test), in words (HaCaT keratinocytes)	Keratinocyte migration higher than that of the native peptides KSLW and DAL (HaCaT keratinocytes; scratch test)	α-helicity [11] [%]	MIC B. cereus (B. cereus) [µg/mL]	MIC B. subtilis (B. subtilis) [µg/mL]	Effect on HaCaT cell viability/proliferation (MTT), in words [12]
CC(C)C[C@H](NC(=O)[C@H](Cc1ccccc1)NC(=O)CNC(=O)[C@@H](C)NC(=O)[C@@H](N)Cc1ccc(O)cc1)C(=O)N[C@@H](CCCNC(=N)N)C(=O)NCCOCCOCC(=O)N[C@@H](CCCCN)C(=O)N[C@@H](CCCCN)C(=O)N[C@H](C(=O)N[C@H](C(=O)N[C@@H](Cc1ccccc1)C(=O)N[C@@H](Cc1c[nH]c2ccccc12)C(=O)N[C@H](C(=O)N[C@@H](CCCCN)C(=O)N[C@@H](Cc1ccccc1)C(=O)N[C@@H](CCCCN)C(N)=O)C(C)C)C(C)C)C(C)C [DAL-PEG-KSLW] (HELM PEPTIDE1{Y.[dA].G.F.L.R.[O=C(COCCOCCN[*:1])[*:2]].K.K.V.V.F.W.V.K.F.K.[am]}$$$$V2.0; N-terminus assumed)	highest migration rate	7.8 (≈ 3.61 µM)	62.5 (≈ 28.9 µM)	31.3	62.5	31.3	125	7.8	62.5 (≈ 28.9 µM)	3.9 (≈ 1.8 µM)	best results	about 15%	22	125 (≈ 57.9 µM)	15.6 (≈ 7.22 µM)	–
carnosine [reference compound]	–	–	–	–	–	–	–	–	–	–	best results	–	–	–	–	non-toxic
